Assay results taken from patent US4487937A, “2-(2-Substitutedamino-4-thiazolyl)-2-(1-methoxy-isopropoxyimino)-acetic acids” (Roussel Uclaf, priority 1977, dated 1984).
≈ marks a conversion by molar mass, not a printed value. Read-outs that look alike come from different tables or passages of the source.

Tests used:
Experiment in all cases: In vitro MIC, dilution of a liquid medium
Type in all cases: cell-based
[1] = test system: Staphylococcus aureus ATCC 6 538 Penicillin-Sensitive; settings: 37° C., read-out: minimum inhibiting concentration (MIC)
Experimental: (§1) The method used was a dilution of a liquid medium where a series of tubes received the same quantity of a sterile nutritive media and increasing doses of the test compounds were placed therein. Then each tube was seeded with a bacterial strain and was incubated for 24 or 48 hours at 37° C. in an oven. The increasing inhibition was determined by transillumination to determine the minimum inhibiting concentration (MIC in μg/ml) and the results are reported in the following Tables.

[2] = test system: Streptococcus faecalis 5 432; settings: Enterococcus faecalis, 5432, 37° C., read-out: minimum inhibiting concentration (MIC)
Experimental: as §1

[3] = test system: Escherichia Coli Sensitive Tetracycline ATCC 9 637; settings: read-out: minimum inhibiting concentration (MIC)
Experimental: as §1

[4] = test system: Escherichia Coli Resistant Tetracycline ATCC 11 303; settings: read-out: minimum inhibiting concentration (MIC)
Experimental: as §1

[5] = test system: Staphylococcus aureus UC 1 128 Penicillin-resistant; settings: 37° C., read-out: minimum inhibiting concentration (MIC)
Experimental: as §1

[6] = test system: Proteus vulgaris (indol +) A 232; settings: read-out: minimum inhibiting concentration (MIC)
Experimental: as §1

[7] = test system: Klebsiella pneumoniae 2 536 Resistant Gentamicine; settings: read-out: minimum inhibiting concentration (MIC)
Experimental: as §1

[8] = test system: Salmonella typhimurium 420; settings: Salmonella enterica, read-out: minimum inhibiting concentration (MIC)
Experimental: as §1

[9] = test system: Staphylococcus aureus exp. n° 54 146; settings: 37° C., read-out: minimum inhibiting concentration (MIC)
Experimental: as §1

[10] = test system: Escherichia Coli Exp. TO26 B6; settings: 37° C., read-out: minimum inhibiting concentration (MIC)
Experimental: as §1

[11] = test system: Providencia Du 48; settings: 37° C., read-out: minimum inhibiting concentration (MIC)
Experimental: as §1

[12] = test system: Streptococcus pyogenes A 561; settings: read-out: minimum inhibiting concentration (MIC)
Experimental: as §1

[13] = test system: Escherichia Coli Resistant Gentamicine, Tobramycine R 55 123 D; settings: read-out: minimum inhibiting concentration (MIC)
Experimental: as §1

[14] = test system: Streptococcus faecalis 99 F 74; settings: Enterococcus faecalis, 99F74, 37° C., read-out: minimum inhibiting concentration (MIC)
Experimental: as §1

[15] = test system: Klebsiella pneumoniae Exp. 52 145; settings: read-out: minimum inhibiting concentration (MIC)
Experimental: as §1

[16] = test system: Proteus mirabilis (indol -) A 235; settings: read-out: minimum inhibiting concentration (MIC)
Experimental: as §1

[17] = test system: Enterobacter cloacae 681; settings: 37° C., read-out: minimum inhibiting concentration (MIC)
Experimental: as §1

[18] = test system: Bacillus subtilis ATCC 6 633; settings: read-out: minimum inhibiting concentration (MIC)
Experimental: as §1

[19] = test system: Serratia Resistant Gentamicine 2 532; settings: 37° C., read-out: minimum inhibiting concentration (MIC)
Experimental: as §1

SMILES | MIC ([1]; ATCC6, 24 H) [µg/mL] | MIC ([1]; ATCC6, 48 H) [µg/mL] | MIC ([2]; 24 H) [µg/mL] | MIC ([2]; 48 H) [µg/mL] | MIC ([4]; ATCC11, 24 H, 37° C.) [µg/mL] | MIC ([5]; UC1, 24 H) [µg/mL] | MIC ([5]; UC1, 48 H) [µg/mL] | MIC ([8]; 24 h) [µg/mL] | MIC ([9]; 24 H) [µg/mL] | MIC ([9]; 48 H) [µg/mL] | MIC ([10]; 24 H) [µg/mL] | MIC ([10]; 48 H) [µg/mL] | MIC ([11]; DU48, 24 H) [µg/mL] | MIC ([11]; DU48, 48 H) [µg/mL] | MIC ([13]; 24 h) [µg/mL] | MIC ([13]; 48 h) [µg/mL] | MIC ([14]; 24 H) [µg/mL] | MIC ([14]; 48 H) [µg/mL] | MIC ([17]; 24 H) [µg/mL] | MIC ([17]; 48 H) [µg/mL] | also measured
CCOC(=O)CO/N=C(\C(=O)NC1C(=O)N2C(C(=O)O)=C(COC(C)=O)CS[C@H]12)c1csc(N)n1 (stereo partly shown) [Example 2, 7-[2-(2-amino-4-thiazolyl)-2-carbethoxymethyloxyimino-acetamido]-3-acetoxymethyl-ceph-3-eme-4-carboxylic acid] | 3 (≈ 5.69 µM) | 5 (≈ 9.48 µM) | 5 (≈ 9.48 µM) | > 40 | 0.5 (≈ 0.948 µM) | 3 (≈ 5.69 µM) | 3 (≈ 5.69 µM) | 1 (≈ 1.9 µM) | 3 (≈ 5.69 µM) | 5 (≈ 9.48 µM) | 1 (≈ 1.9 µM) | 1 (≈ 1.9 µM) | 5 (≈ 9.48 µM) | 5 (≈ 9.48 µM) | 1 (≈ 1.9 µM) | 1 (≈ 1.9 µM) | > 40 | > 40 | 10 (≈ 19 µM) | 10 (≈ 19 µM) | MIC ([3]; ATCC9, 24 H, 37° C.): 2 µg/mL (≈ 3.79 µM); MIC ([3]; ATCC9, 48 H, 37° C.): 2 µg/mL (≈ 3.79 µM); MIC ([4]; ATCC11, 48 h): 1 µg/mL (≈ 1.9 µM); MIC ([6]; 24 h): 1 µg/mL (≈ 1.9 µM); MIC ([6]; 48 h): 1 µg/mL (≈ 1.9 µM); MIC ([7]; 24 H, 37° C.): 2 µg/mL (≈ 3.79 µM); MIC ([7]; 48 H, 37° C.): 2 µg/mL (≈ 3.79 µM); MIC ([8]; 48 H, 37° C.): 2 µg/mL (≈ 3.79 µM); MIC ([12]; A561, 24 H, 37° C.): 0.05 µg/mL (≈ 0.0948 µM); MIC ([12]; A561, 48 h): 0.1 µg/mL (≈ 0.19 µM); MIC ([15]; EXP.52145, 48 H, 37° C.): 0.2 µg/mL (≈ 0.379 µM); MIC ([15]; EXP.52145, 24 h): 0.1 µg/mL (≈ 0.19 µM); MIC ([16]; 24 H, 37° C.): 0.2 µg/mL (≈ 0.379 µM); MIC ([16]; 48 H, 37° C.): 0.2 µg/mL (≈ 0.379 µM); MIC ([18]; ATCC6, 24 H, 37° C.): 0.5 µg/mL (≈ 0.948 µM); MIC ([18]; ATCC6, 48 H, 37° C.): 5 µg/mL (≈ 9.48 µM); MIC ([19]; 24 H): 5 µg/mL (≈ 9.48 µM); MIC ([19]; 48 H): 5 µg/mL (≈ 9.48 µM)
CC(=O)OCC1=C(C(=O)O)N2C(=O)C(NC(=O)/C(=N\OCC(=O)O)c3csc(N)n3)[C@H]2SC1 (stereo partly shown) [Example 5, disodium 7-[2-(2-amino-4-thiazolyl)-2-hydroxycarbonylmethoxyimino-acetamido]-3-acetoxymethyl-ceph-3-eme-4-carboxylate] | 10 | 10 | 20 | > 40 | 0.05 | 20 | 20 | 0.2 | 20 | 20 | 0.1 | 0.1 | 1 | 2 | 0.1 | 0.1 | > 40 | > 40 | 5 | 20 | MIC ([3]; ATCC9, 24 h): 0.2 µg/mL; MIC ([3]; ATCC9, 48 h): 0.2 µg/mL; MIC ([4]; ATCC11, 48 H, 37° C.): 0.05 µg/mL; MIC ([6]; 24 h): 0.1 µg/mL; MIC ([6]; 48 h): 0.1 µg/mL; MIC ([7]; 24 h): 0.1 µg/mL; MIC ([7]; 48 h): 0.1 µg/mL; MIC ([8]; 48 H, 37° C.): 0.5 µg/mL; MIC ([12]; A561, 24 H, 37° C.): 0.5 µg/mL; MIC ([12]; A561, 48 H, 37° C.): 0.5 µg/mL; MIC ([15]; EXP.52145, 24 h): 0.1 µg/mL; MIC ([15]; EXP.52145, 48 h): 0.1 µg/mL; MIC ([16]; 24 H, 37° C.): ≤ 0.02 µg/mL; MIC ([16]; 48 H, 37° C.): ≤ 0.02 µg/mL; MIC ([19]; 24 H): 1 µg/mL; MIC ([19]; 48 H): 2 µg/mL
CC(=O)OCC1=C(C(=O)O)N2C(=O)C(NC(=O)/C(=N\OCC#N)c3csc(N)n3)C2SC1 (stereo not shown) [Example 8, sodium 7-[2-(2-amino-4-thiazolyl)-2-cyano-methoxyimino-acetamido]-3-acetoxymethyl-ceph-3-eme-4-carboxylate] | 2 | 2 | 3 | 20 | 0.05 | 2 | 3 | 0.5 | 2 | 3 | 0.2 | 0.2 | 5 | 5 | 0.2 | 0.2 | 10 | > 40 | 3 | 5 | MIC ([3]; ATCC9, 24 h): 0.5 µg/mL; MIC ([3]; ATCC9, 48 h): 0.5 µg/mL; MIC ([4]; ATCC11, 48 H, 37° C.): 0.05 µg/mL; MIC ([7]; 24 H, 37° C.): 1 µg/mL; MIC ([7]; 48 H, 37° C.): 1 µg/mL; MIC ([8]; 48 h): 0.5 µg/mL; MIC ([12]; A561, 24 H, 37° C.): 0.05 µg/mL; MIC ([12]; A561, 48 H, 37° C.): 0.05 µg/mL; MIC ([15]; EXP.52145, 24 H, 37° C.): 0.05 µg/mL; MIC ([15]; EXP.52145, 48 H, 37° C.): 0.05 µg/mL; MIC ([16]; 24 H, 37° C.): 0.05 µg/mL; MIC ([16]; 48 H, 37° C.): 0.05 µg/mL; MIC ([18]; ATCC6, 48 H, 37° C.): 1 µg/mL; MIC ([18]; ATCC6, 24 h): 0.5 µg/mL; MIC ([19]; 24 H): 2 µg/mL; MIC ([19]; 48 H): 2 µg/mL
CC(=O)OCC1=C(C(=O)O)N2C(=O)C(NC(=O)/C(=N\OCC(N)=O)c3csc(N)n3)[C@H]2SC1 (stereo partly shown) [Example 11, sodium 7-[2-(2-amino-4-thiazolyl)-2-(aminocarbonylmethoxyimino)-acetamido]-3-acetoxymethyl-ceph-3-eme-4-carboxylate] | 2 | 3 | 5 | 20 | 0.05 | 5 | 5 | 0.2 | 3 | 5 | 0.1 | 0.1 | 5 | 5 | 0.1 | 0.1 | 20 | > 40 | 2 | 10 | MIC ([3]; ATCC9, 24 h): 0.2 µg/mL; MIC ([3]; ATCC9, 48 h): 0.5 µg/mL; MIC ([4]; ATCC11, 48 H, 37° C.): 0.05 µg/mL; MIC ([6]; 24 H, 37° C.): 5 µg/mL; MIC ([6]; 48 H, 37° C.): 40 µg/mL; MIC ([7]; 24 h): 0.5 µg/mL; MIC ([7]; 48 h): 0.5 µg/mL; MIC ([8]; 48 h): 0.2 µg/mL; MIC ([12]; A561, 24 h): 0.1 µg/mL; MIC ([12]; A561, 48 h): 0.1 µg/mL; MIC ([15]; EXP.52145, 24 H, 37° C.): 0.05 µg/mL; MIC ([15]; EXP.52145, 48 H, 37° C.): 0.05 µg/mL; MIC ([16]; 24 h): 0.1 µg/mL; MIC ([16]; 48 h): 0.1 µg/mL; MIC ([18]; ATCC6, 48 H, 37° C.): 1 µg/mL; MIC ([18]; ATCC6, 24 h): 0.5 µg/mL; MIC ([19]; 24 H): 2 µg/mL; MIC ([19]; 48 H): 2 µg/mL
